Experimental data: patent US20250230193A1, “CYCLIC COMPOUND HAVING SELECTIVE KRAS INHIBITORY EFFECT ON HRAS AND NRAS” (CHUGAI SEIYAKU KABUSHIKI KAISHA, priority 2022, published 2025)
Where a SMILES comes first, the peptide text is derived from it. Bridges are numbered along the chain shown (N, C = ends). [ ]: non-standard residue; d: D form. hPhe(3,5-F2-4-CF3) = N[C@@H](CCc1cc(F)c(C(F)(F)F)c(F)c1)C(=O)O; NPrPhe(4-CF3) = CCCN[C@@H](Cc1ccc(C(F)(F)F)cc1)C(=O)O; NMeGly(cPent) = CN[C@H](C(=O)O)C1CCCC1; αMeF = C[C@](N)(Cc1ccccc1)C(=O)O; NMeD = CN[C@@H](CC(=O)O)C(=O)O; NMeL = CN[C@@H](CC(C)C)C(=O)O; Sar = CNCC(=O)O

Experiments:
[1] = molecular target: GDP-bound NRAS wild-type protein (Homo sapiens, UniProt P01111); experiment: Binding to NRAS by surface plasmon resonance (SPR), Single Cycle Kinetics; settings: for NRAS/KRAS (ratio of KD value with respect to NRAS to KD value with respect to KRAS): GDP-bound NRAS wild-type vs GDP-bound KRAS wild-type
[2] = molecular target: GDP-bound HRAS wild-type protein (Homo sapiens, UniProt P01112); experiment: Binding to HRAS by surface plasmon resonance (SPR), Single Cycle Kinetics; settings: for HRAS/KRAS (ratio of KD value with respect to HRAS to KD value with respect to KRAS): GDP-bound HRAS wild-type vs GDP-bound KRAS wild-type
[3] = SPR, GDP-bound wild-type proteins

Chain of GDP-bound NRAS wild-type protein (P01111 whole entry): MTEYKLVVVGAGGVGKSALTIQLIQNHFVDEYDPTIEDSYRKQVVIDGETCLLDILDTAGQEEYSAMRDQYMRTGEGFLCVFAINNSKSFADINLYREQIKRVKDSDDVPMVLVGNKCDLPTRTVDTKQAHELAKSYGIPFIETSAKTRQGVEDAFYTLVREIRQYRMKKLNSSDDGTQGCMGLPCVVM
Chain of GDP-bound HRAS wild-type protein (P01112 whole entry): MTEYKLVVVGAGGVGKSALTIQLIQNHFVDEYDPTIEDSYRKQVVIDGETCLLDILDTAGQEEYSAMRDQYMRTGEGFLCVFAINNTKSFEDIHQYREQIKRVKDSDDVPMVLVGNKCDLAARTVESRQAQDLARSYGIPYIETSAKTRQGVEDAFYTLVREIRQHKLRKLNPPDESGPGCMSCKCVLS

CCCN1C(=O)CN(C)C(=O)CN(C)C(=O)[C@H]([C@@H](C)CC)NC(=O)[C@H](CC(C)C)N(C)C(=O)C[C@@H](C(=O)N(C)C)N(C)C(=O)[C@H](C2CCCC2)N(C)C(=O)[C@](C)(Cc2ccccc2)NC(=O)[C@@H]2CCCN2C(=O)[C@H](CCc2cc(F)c(C(F)(F)F)c(F)c2)NC(=O)CN(C)C(=O)[C@@H]1Cc1ccc(C(F)(F)F)cc1 [PP0740] ([NMeL]I[Sar][Sar][NPrPhe(4-CF3)][Sar][hPhe(3,5-F2-4-CF3)]P[αMeF][NMeGly(cPent)][NMeD]-NMe2; lactam N-11)
NRAS/KRAS (ratio of KD value with respect to GDP-bound NRAS wild-type protein to KD value with respect to KRAS) ([1]; SPR): B (a compound having 3 or more and less than 10 is denoted as B) | HRAS/KRAS (ratio of KD value with respect to GDP-bound HRAS wild-type protein to KD value with respect to KRAS) ([2]; SPR): C (A compound having a KD ratio of 0.1 or more and less than 3 is denoted as C)

CCO[C@@H]1C[C@H]2C(=O)NC3(CCCC3)C(=O)N(C)[C@@H](C3CCCC3)C(=O)N(C)[C@H](C(=O)N3CCOCC3)CC(=O)N(C)[C@@H](COC)C(=O)N[C@@H]([C@@H](C)CC)C(=O)N(C)CC(=O)N(C)[C@H]3CCCCCN(C3=O)[C@@H](Cc3ccc(C(F)(F)F)cc3)C(=O)N(C)CC(=O)N[C@@H](CCc3cc(F)c(C(F)(F)F)c(F)c3)C(=O)N2C1 [PP0841]
NRAS/KRAS (ratio of KD value with respect to NRAS to KD value with respect to KRAS) ([1]; KD ratio, SPR): B (a compound having 3 or more and less than 10 is denoted as B) | HRAS/KRAS (ratio of KD value with respect to HRAS to KD value with respect to KRAS) ([2]; KD ratio, SPR): B (a compound having 3 or more and less than 10 is denoted as B)

CCO[C@@H]1C[C@H]2C(=O)NC3(CCC3)C(=O)N(C)[C@@H](C3CCCC3)C(=O)N(C)[C@H](C(=O)N3CCOCC3)CC(=O)N(C)[C@@H](COC)C(=O)N[C@@H]([C@@H](C)CC)C(=O)N3CC[C@H]3C(=O)N(C)[C@H]3CCCCCN(C3=O)[C@@H](Cc3ccc(C(F)(F)F)cc3)C(=O)N(C)CC(=O)N[C@@H](CCc3cc(F)c(C(F)(F)F)c(F)c3)C(=O)N2C1 [PP0863]
NRAS/KRAS (ratio of KD value with respect to NRAS to KD value with respect to KRAS) ([1]; KD ratio, SPR): B (a compound having 3 or more and less than 10 is denoted as B) | HRAS/KRAS (ratio of KD value with respect to HRAS to KD value with respect to KRAS) ([2]; KD ratio, SPR): B (a compound having 3 or more and less than 10 is denoted as B)

CCC[C@H]1C(=O)N[C@@H](CC(C)C)C(=O)N(CC)CC(=O)N(C)[C@H]2C/C=C\CCN(C2=O)[C@@H](Cc2ccc(C)cc2)C(=O)N(C)CC(=O)N[C@@H](CCc2cc(F)c(C(F)(F)F)c(F)c2)C(=O)N2C[C@H](OCC)C[C@H]2C(=O)NC2(CCC2)C(=O)N(C)[C@@H](C2CCCC2)C(=O)N(C)[C@H](C(=O)N(C)C)CC(=O)N1C [PP2539]
NRAS/KRAS (ratio of KD value with respect to GDP-bound NRAS wild-type protein to KD value with respect to KRAS) ([1]; class symbols): A (a compound having 10 or more and less than 20 is denoted as A) | HRAS/KRAS (ratio of KD value with respect to GDP-bound HRAS wild-type protein to KD value with respect to KRAS) ([2]; class symbols): B (a compound having 3 or more and less than 10 is denoted as B)

CC[C@H](C)[C@@H]1NC(=O)[C@H](C)N(C)C(=O)C[C@@H](C(=O)N(C)C)N(C)C(=O)[C@H](C2CCCC2)N(C)C(=O)C2(CCCC2)NC(=O)[C@@H]2CC(F)(F)CN2C(=O)[C@H](CCc2cc(F)c(C(F)(F)F)c(F)c2)NC(=O)CN(C)C(=O)[C@H](Cc2ccc(C(F)(F)F)cc2)N2CCCCC[C@@H](C2=O)N(C)C(=O)CN(C)C1=O [PP0472]
NRAS/KRAS (ratio of KD value with respect to GDP-bound NRAS wild-type protein to KD value with respect to KRAS) ([1]; SPR): B (a compound having 3 or more and less than 10 is denoted as B) | HRAS/KRAS (ratio of KD value with respect to GDP-bound HRAS wild-type protein to KD value with respect to KRAS) ([2]; SPR): B (a compound having 3 or more and less than 10 is denoted as B)

CCC[C@H]1C(=O)N[C@@H]([C@@H](C)CC)C(=O)N(C)CC(=O)N(C)[C@H]2C/C=C\CCN(C2=O)[C@@H](Cc2ccc(C)cc2)C(=O)N(C)CC(=O)N[C@@H](CCc2ccc(C(F)(F)F)c(OC)c2)C(=O)N2CC3(CC3)C[C@H]2C(=O)NC2(CC(C)(C)C2)C(=O)N(C)[C@@H](CC(F)(F)F)C(=O)N(C)[C@H](C(=O)N(C)C)CC(=O)N1C [PP3012]
NRAS/KRAS (ratio of KD value with respect to GDP-bound NRAS wild-type protein to KD value with respect to KRAS) [1, 3]: A (a compound having 10 or more and less than 20 is denoted as A) | HRAS/KRAS (ratio of KD value with respect to GDP-bound HRAS wild-type protein to KD value with respect to KRAS) [2, 3]: A (a compound having 10 or more and less than 20 is denoted as A)

CCCOC[C@H]1C(=O)N[C@@H]([C@@H](C)CC)C(=O)N2CCC[C@H]2C(=O)N(C)[C@H]2C/C=C\CCN(C2=O)[C@@H](Cc2ccc(C)cc2)C(=O)N(C)CC(=O)N[C@@H](CCc2ccc(C(F)(F)F)c(OC)c2)C(=O)N2C[C@@H](C)C[C@H]2C(=O)NC2(CC(C)(C)C2)C(=O)N(C)[C@@H](C2CCCC2)C(=O)N(C)[C@H](C(=O)N(C)CC)CC(=O)N1C [PP2429]
NRAS/KRAS (ratio of KD value with respect to NRAS to KD value with respect to KRAS) ([1]; SPR): A (a compound having 10 or more and less than 20 is denoted as A) | HRAS/KRAS (ratio of KD value with respect to HRAS to KD value with respect to KRAS) ([2]; SPR): B (a compound having 3 or more and less than 10 is denoted as B)
